Measurements reported in ChEMBL document CHEMBL1201862, “PubChem BioAssay data set” (2004).
The source made the active and inactive calls.

Tests used:
[1] = NIH-3T3 fibroblast cytotoxicity, dose response, cytotoxicity control, cell-based, fluorescence, Alamar Blue, secondary assay (AID 2327); assay type: functional;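 note: NIH-3T3 mouse fibroblasts cultured with fluconazole at 8 µg/mL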
[2] = fluconazole-exposed Candida albicans growth modulators – fluorescence, retest, confirmation (AID 2467); assay type: functional, cell-based
[3] = test system: Streptococcus sp. 'group A'; experiment: Streptococcus pyogenes SK(-)GAS viability under kanamycin – luminescence, BacTiterGlo, confirmation, counter-screen for streptokinase expression inhibitor project, dose response (AID 1900); assay type: functional, organism-based
Streptococcus = experiment: GAS UMAA2166 growth inhibition – luminescence, BacTiterGlo, counter-screen for streptokinase expression inhibitor project, dose response (AID 1915); assay type: functional, organism-based;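 note: potency for reduction of bacterial viability or growth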
Streptokinase A = target: T1, Streptokinase A (Streptococcus pyogenes serotype M1, UniProt P10520); experiment: viability-normalized secreted streptokinase activity reduction – plasminogen activation absorbance, OD405, dose response (AID 1914); assay type: functional, Streptococcus pyogenes M1 GAS;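 note: secreted streptokinase activity via plasminogen activation per viability signal from cell pellet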
T1 sequence (P10520 whole entry): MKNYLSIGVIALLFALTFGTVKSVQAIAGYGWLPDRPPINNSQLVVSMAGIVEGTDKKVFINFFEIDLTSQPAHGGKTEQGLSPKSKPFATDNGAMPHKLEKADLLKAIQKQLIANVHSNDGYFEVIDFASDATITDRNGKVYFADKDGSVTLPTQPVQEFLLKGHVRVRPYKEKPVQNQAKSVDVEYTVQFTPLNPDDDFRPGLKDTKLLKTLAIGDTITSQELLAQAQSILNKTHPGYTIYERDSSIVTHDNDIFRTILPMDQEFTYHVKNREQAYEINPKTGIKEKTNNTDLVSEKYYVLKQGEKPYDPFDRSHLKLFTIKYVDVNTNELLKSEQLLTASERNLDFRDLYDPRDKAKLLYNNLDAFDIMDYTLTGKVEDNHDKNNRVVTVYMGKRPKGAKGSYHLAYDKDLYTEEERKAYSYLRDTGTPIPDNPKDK

HEK293 = experiment: EBV LMP1 TES2 canonical NF-kB signalling blockers – cell-based, HEK293, luciferase, cherry-pick, dose response (AID 588343); assay type: functional; conditions: Homo sapiens
HeLa = experiment: ATP-based viability loss in HeLa cells – cell-based, CellTiter-Glo luminescence, cherry-pick samples, cytotoxicity control for MITF activator project, dose response (AID 540259); assay type: functional; conditions: Homo sapiens
[4] = target: T2, High affinity choline transporter 1 (Homo sapiens, UniProt Q9GZV3); experiment: human choline transporter blockers, potency – cell-based, 5-point CRC, membrane potential dye, dose response (AID 504840); assay type: functional
T2 sequence (Q9GZV3 whole entry): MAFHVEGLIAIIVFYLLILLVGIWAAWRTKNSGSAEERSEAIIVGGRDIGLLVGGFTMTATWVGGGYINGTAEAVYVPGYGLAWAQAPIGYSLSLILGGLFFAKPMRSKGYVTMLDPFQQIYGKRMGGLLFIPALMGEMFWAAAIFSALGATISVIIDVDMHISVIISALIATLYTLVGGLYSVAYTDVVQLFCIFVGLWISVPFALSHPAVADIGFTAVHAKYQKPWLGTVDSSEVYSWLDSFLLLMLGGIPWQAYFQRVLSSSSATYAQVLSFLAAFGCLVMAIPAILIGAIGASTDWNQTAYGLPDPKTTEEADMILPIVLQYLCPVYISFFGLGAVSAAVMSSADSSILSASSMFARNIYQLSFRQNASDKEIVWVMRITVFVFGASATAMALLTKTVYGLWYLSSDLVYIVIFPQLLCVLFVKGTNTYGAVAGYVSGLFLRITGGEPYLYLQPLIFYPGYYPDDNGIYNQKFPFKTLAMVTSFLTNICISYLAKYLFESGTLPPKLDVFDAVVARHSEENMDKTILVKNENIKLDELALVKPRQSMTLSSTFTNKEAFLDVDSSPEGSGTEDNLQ

[5] = target: T3, Endoribonuclease toxin MazF (Escherichia coli K-12, UniProt P0AE70); experiment: activation of MazEF endoribonuclease cleavage – biochemical, fluorescence, single-stranded RNA substrate, uHTS hits, dose response (AID 588481); assay type: functional
T3 sequence (P0AE70 whole entry): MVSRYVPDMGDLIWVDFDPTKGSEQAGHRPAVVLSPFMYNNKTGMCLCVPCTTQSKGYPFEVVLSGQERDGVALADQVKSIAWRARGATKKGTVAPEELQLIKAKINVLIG

[6] = target: T3, Endoribonuclease toxin MazF; experiment: substrate-only fluorescence increase artefacts – biochemical, single-stranded RNase substrate, counter-screen for MazEF activator project, dose response (AID 588502); assay type: functional
Aminopeptidase N = target: T4, Aminopeptidase N (Plasmodium falciparum FcB1/Columbia, UniProt O96935); experiment: malaria alanyl aminopeptidase activity blockers – biochemical, fluorogenic H-Leu-NHMec substrate, 1536-well (AID 1445); parameters: species or system Plasmodium falciparum 3D7, 3D7
T4 sequence (O96935 whole entry): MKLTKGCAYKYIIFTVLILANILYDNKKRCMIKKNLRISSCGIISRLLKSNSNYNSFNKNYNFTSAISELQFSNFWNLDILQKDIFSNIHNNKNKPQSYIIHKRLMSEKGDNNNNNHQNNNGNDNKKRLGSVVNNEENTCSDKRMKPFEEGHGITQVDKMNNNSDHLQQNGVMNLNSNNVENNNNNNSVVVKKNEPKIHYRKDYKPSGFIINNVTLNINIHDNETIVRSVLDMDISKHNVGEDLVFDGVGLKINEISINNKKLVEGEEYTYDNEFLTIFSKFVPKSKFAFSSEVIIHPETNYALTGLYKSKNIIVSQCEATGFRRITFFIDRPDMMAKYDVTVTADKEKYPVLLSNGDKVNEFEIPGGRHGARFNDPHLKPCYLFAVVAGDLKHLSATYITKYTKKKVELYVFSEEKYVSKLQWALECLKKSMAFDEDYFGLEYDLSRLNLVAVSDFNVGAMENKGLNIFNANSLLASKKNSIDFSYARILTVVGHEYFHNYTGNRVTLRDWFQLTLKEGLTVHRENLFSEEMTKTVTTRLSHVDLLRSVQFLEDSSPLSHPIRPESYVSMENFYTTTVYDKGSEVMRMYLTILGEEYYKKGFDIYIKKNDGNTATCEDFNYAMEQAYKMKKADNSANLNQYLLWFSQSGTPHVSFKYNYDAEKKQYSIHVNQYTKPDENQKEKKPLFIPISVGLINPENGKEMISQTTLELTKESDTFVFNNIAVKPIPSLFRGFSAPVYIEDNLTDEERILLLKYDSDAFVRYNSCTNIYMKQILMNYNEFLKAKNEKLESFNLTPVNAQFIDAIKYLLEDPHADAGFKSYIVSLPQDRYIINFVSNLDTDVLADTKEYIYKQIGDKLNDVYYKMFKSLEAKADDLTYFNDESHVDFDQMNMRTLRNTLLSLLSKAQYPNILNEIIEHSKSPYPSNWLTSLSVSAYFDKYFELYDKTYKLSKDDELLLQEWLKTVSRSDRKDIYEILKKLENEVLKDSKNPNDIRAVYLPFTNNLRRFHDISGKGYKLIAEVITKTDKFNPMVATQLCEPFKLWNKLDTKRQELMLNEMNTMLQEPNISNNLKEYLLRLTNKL

Protein skinhead-1 = target: T5, Protein skinhead-1 (Caenorhabditis elegans, UniProt P34707); assay type: functional
T5 sequence (P34707 whole entry): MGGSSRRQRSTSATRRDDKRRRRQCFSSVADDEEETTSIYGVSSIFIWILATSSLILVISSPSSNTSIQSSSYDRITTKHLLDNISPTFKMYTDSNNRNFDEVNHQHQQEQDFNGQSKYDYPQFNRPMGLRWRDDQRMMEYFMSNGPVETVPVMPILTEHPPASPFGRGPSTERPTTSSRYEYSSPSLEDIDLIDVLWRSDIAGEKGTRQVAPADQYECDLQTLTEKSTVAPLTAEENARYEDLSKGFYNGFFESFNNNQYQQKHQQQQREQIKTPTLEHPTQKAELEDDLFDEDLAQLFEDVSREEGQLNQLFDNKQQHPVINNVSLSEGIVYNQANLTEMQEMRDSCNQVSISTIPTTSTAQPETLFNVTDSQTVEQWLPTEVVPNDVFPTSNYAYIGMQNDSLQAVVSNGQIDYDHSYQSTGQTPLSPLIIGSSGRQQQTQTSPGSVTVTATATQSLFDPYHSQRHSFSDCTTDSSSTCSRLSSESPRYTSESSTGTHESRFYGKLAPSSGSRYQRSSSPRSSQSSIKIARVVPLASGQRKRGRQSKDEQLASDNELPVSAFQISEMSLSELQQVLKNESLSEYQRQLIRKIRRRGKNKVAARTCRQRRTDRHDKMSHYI

Protein RecA = target: T6, Protein RecA (Mycobacterium tuberculosis, UniProt P9WHJ3); experiment: Fluorescence Cell-Free Homogeneous Dose Retest to Identify Inhibitors of RecA-Intein Splicing Activity. [Related pubchem assays (depositor defined):AID2097, AID2223, AID489010, AID492950]; assay type: functional
T6 sequence (P9WHJ3 whole entry): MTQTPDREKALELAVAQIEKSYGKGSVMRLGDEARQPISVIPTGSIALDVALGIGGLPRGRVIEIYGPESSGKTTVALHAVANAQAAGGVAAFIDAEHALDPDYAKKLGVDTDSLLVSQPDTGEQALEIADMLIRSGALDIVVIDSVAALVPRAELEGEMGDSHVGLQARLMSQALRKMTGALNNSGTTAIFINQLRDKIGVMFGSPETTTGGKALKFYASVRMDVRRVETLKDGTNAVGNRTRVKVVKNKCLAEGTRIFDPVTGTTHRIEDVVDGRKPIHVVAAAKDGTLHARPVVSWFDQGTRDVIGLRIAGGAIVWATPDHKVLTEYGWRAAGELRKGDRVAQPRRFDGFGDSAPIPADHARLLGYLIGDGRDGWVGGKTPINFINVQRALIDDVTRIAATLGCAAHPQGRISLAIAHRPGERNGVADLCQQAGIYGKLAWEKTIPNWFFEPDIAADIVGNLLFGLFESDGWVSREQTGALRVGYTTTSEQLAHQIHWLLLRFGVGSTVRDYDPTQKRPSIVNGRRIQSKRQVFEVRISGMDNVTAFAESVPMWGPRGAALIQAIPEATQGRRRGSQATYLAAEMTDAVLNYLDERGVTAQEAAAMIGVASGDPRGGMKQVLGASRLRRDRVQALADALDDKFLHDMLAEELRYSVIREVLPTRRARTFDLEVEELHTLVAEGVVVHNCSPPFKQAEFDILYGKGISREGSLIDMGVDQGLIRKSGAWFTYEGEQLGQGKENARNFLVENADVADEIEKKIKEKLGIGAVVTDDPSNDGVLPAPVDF

[7] = target: T7, Replicative DNA helicase DnaB (Mycobacterium tuberculosis, UniProt P9WMR3); experiment: DnaB intein splicing inhibitors, dose response, biochemical, cell-free fluorescence (AID 449749); assay type: functional
T7 sequence (P9WMR3 whole entry): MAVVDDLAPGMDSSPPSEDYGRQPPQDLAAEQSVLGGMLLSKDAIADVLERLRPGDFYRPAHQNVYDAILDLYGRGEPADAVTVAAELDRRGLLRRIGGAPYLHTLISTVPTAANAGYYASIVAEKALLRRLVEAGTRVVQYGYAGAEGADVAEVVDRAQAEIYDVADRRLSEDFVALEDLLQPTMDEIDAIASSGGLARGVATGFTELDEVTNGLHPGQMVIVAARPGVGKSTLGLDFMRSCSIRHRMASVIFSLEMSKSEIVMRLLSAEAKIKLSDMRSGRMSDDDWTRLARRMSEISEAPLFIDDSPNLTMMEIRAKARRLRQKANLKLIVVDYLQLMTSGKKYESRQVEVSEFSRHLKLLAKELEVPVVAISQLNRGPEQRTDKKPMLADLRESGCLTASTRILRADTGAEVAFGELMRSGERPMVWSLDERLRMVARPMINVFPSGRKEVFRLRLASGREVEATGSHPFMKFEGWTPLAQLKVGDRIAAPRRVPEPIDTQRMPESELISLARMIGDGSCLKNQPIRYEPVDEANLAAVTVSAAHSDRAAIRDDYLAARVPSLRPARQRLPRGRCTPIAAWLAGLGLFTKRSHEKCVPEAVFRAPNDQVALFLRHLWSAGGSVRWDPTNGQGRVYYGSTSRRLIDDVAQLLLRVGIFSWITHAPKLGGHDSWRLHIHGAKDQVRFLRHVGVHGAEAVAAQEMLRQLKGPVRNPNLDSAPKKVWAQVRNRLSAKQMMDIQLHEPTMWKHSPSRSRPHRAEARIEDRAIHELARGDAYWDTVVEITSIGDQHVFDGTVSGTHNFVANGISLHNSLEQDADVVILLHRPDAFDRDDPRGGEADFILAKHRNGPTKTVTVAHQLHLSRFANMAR

Cc1ccc(O)c(C2=NNC(c3ccc(Cl)cc3)C2)c1 (configuration not stated)
EC50 [1]: > 160 µM (inactive)
EC50 [2]: 3.23 µM (active)
EC50 [3]: 4.36 µM (active)
EC50 (Streptococcus): 9.12 µM (active)
EC50 (Streptokinase A): > 150 µM (not active)

O=C(c1ccc(Cl)cc1)N1CCN(CCOc2ccccc2)CC1
AC50 (HEK293): > 350 µM (inactive)

COC(=O)C(C)N1C(=O)S/C(=C/c2cc(C)n(C(C)C)c2C)C1=O (configuration not stated)
AC50 (HeLa): 52.9 µM (active)

C/C(=N\N=C(N)N)c1ccc(Cl)cc1Cl
IC50 [4]: 14.8 µM (active)

NNS(=O)(=O)c1ccc(Sc2ccccn2)c([N+](=O)[O-])c1
EC50 [5]: 52.6 µM (inactive)
EC50 [6]: > 99 µM (inactive)

CC1=C(C(=O)Nc2cccc(C(=O)NC3CCCCC3C)c2)SCCO1 (configuration not stated)
IC50 [4]: 13.2 µM (active)

Cc1ccc(-c2cc(-c3ccccc3)nc(N)c2C#N)o1
EC50 [5]: > 99 µM (inactive)
EC50 [6]: 44.6 µM (inactive)

O=C(Cc1ccc(F)cc1)N/N=C/c1ccc(-c2ccc(Cl)c(C(=O)O)c2)o1
IC50 (Aminopeptidase N): 22.9 µM (active)

Cc1cc(OC(C)C(=O)Nc2ccc(S(=O)(=O)Nc3onc(C)c3C)cc2)cc(C)c1Cl (configuration not stated)
IC50 [4]: 3.98 µM (active)

COc1ccc(-c2ccc3ccccc3n2)cc1OC
AC50 (HeLa): 46.8 µM (active)

CC1CC(=O)C2=C(C1)OC(N)=C(C#N)C2c1coc2ccccc2c1=O (configuration not stated)
EC50 [5]: > 99 µM (inactive)
EC50 [6]: > 99 µM (inactive)

O=C(CSc1n[nH]c(-c2ccccc2)n1)Nc1ncc(Br)cc1Br
IC50 [4]: 14.5 µM (active)

Cc1cccc(C)c1OCc1cc(C(=O)N2CCN(C3CCCC3)CC2)no1
IC50 [4]: 19.1 µM (active)
IC50 (Protein skinhead-1): > 100 µM (inactive)

CSC(=Nc1ccc(Cl)cc1)NS(=O)(=O)c1cccs1
EC50 [1]: > 150 µM (inactive)
EC50 [2]: 1.15 µM (active)

COc1cc(/C=C2/SC(=S)N(Cc3ccccc3)C2=O)ccc1OCC(=O)O
EC50 (Protein RecA): 6.85 µM (active)
AC50 [7]: 4.22 µM (active)
AC50 (HEK293): 45.2 µM (active)

COC(=O)CN1C(=O)C2(C(C#N)=C(N)Oc3[nH]nc(-c4cccs4)c32)c2ccccc21 (configuration not stated)
IC50 (Aminopeptidase N): 36.7 µM (active)
